Laboratory results reported in ChEMBL document CHEMBL1154198, “Chemical genetics of Plasmodium falciparum” (Nature, 2010).

Key:
Plasmodium falciparum [1] = experiment: ST_JUDE: Plasmodium falciparum 3D7 EC50 (uM) as measured by SYBR green dye; format: functional, organism-based
Plasmodium falciparum [2] = experiment: ST_JUDE: Plasmodium falciparum K1 EC50 (uM) as measured by SYBR green dye; format: functional, organism-based

| Compound | EC50 (Plasmodium falciparum [1]) [µM] | EC50 (Plasmodium falciparum [2]) [µM] |
| --- | --- | --- |
| CC(=O)c1c(C(C)=O)c(C)n(Cc2ccc(Cl)cc2)c1C | > 15 | 6.63 |
| COc1cc(SC)ccc1C(=O)N1CCCC(C)C1 (configuration not stated) | 9.81 | > 15 |
| Brc1ccc(C2=CC(c3ccccc3)n3ncnc3N2)cc1 (configuration not stated) | > 15 | > 15 |
| CCCCCCc1cc(O)c2c(C)cc(=O)oc2c1 | > 15 | 4.15 |
| CCCc1cc(O)nc(-n2nc(C)cc2NC(=O)c2ccc(C)cc2)n1 | > 15 | > 15 |
| COc1cc(CNc2cc(Cl)ccc2C)cc(I)c1OC | > 15 | 3.17 |
| CN1CCN(c2ccc(-c3cccc(NC(=O)c4cccc(F)c4)c3)nn2)CC1 | > 15 | > 15 |
| Cc1ccc(CNC(=O)/C=C/c2ccc([N+](=O)[O-])cc2)cc1 | > 15 | > 15 |
| Oc1ccccc1Nc1nc(-c2cccnc2)nc2ccccc12 | > 15 | 2.1 |
| OCCC1CN(Cc2c(F)cccc2F)CCN1Cc1ccc(F)cc1 (configuration not stated) | > 15 | > 15 |
| Cc1ccc(/C=N/NC(=O)COc2ccc(Cl)cc2Cl)c(O)c1 | > 15 | > 15 |
| CSc1cccc(NC(=O)Cn2c(=O)sc3ccccc32)c1 | > 15 | > 15 |
| CCCCc1ccc(NS(=O)(=O)c2cc3c4c(c2)CCN4C(=O)CC3)cc1 | > 15 | > 15 |
| O=C1CC(c2ccc(Cl)c(Cl)c2)C2=C(CC(c3ccc(F)cc3)CC2=O)N1 (configuration not stated) | > 15 | 4.38 |
| c1cncc(CN2CCN(Cc3cccc4ccccc34)CC2)c1 | > 15 | > 15 |
| COc1ccc(C(NC(=O)c2cccnc2)c2cc(Cl)c3cccnc3c2O)cc1 (configuration not stated) | 4.76 | 1.5 |
| CC(C)(C)c1ccc(-c2nc(-c3ccncc3)no2)cc1 | > 15 | > 15 |
| CCCCc1ccc2nc(C)c(CN(C)C3CCN(C)CC3)c(O)c2c1 | > 15 | > 15 |
| CC(=O)NCC(=O)NC1CC(C)(C)Cc2c1cnn2-c1ccccc1 (configuration not stated) | > 15 | > 15 |
| O=[N+]([O-])c1ccccc1C(Nc1ccccn1)c1cc(Cl)c2cccnc2c1O (configuration not stated) | 8.67 | > 15 |
| Cc1cccc(NC(c2ccccc2C)c2ccc3ccc(C)nc3c2O)n1 (configuration not stated) | 7.03 | 5.17 |
| O=C(CSc1nnc(-c2ccncc2)o1)Nc1ccccc1C(F)(F)F | > 15 | > 15 |
| COc1ccc(OC)c2sc(N(Cc3cccnc3)C(=O)c3cccc(F)c3)nc12 | 4.1 | 4.97 |

These reach a lower EC50 (Plasmodium falciparum [1]). Values come first.

| EC50 (Plasmodium falciparum [1]) [µM] | EC50 (Plasmodium falciparum [2]) [µM] | Compound |
| --- | --- | --- |
| 3.67 | 4 | CCc1cccc2c(C#N)cn(Cc3ccc(Br)cc3)c12 |
| 3.15 | 0.795 | CCOc1cccc(CNC2CC(C)(C)Cc3c2cnn3-c2ccc(C)cc2)c1O (configuration not stated) |
| 2.89 | 4.87 | CCOC(=O)c1c(CNCCN(CC)CC)n(C)c2cc(Br)c(O)cc12 |
| 1.77 | 2.44 | Oc1c(C(Nc2ccccn2)c2cccc(Cl)c2Cl)ccc2cccnc12 (configuration not stated) |
| 1.75 | 3.25 | O=[N+]([O-])c1ccc(O)c(-c2cc(C(F)(F)F)nc(-c3ccccc3)n2)c1 |
| 1.69 | 0.822 | CCCCCN1COc2ccc3c4c(c(=O)oc3c2C1)CCCC4 |
| 1.64 | 4.25 | Cc1ccccc1-n1c(N)c(C#N)c2nc3ccccc3nc21 |
| 1.51 | 4.17 | Cc1cccc(NC(c2ccc(F)cc2)c2ccc3cccnc3c2O)n1 (configuration not stated) |
| 1.11 | 0.974 | CCC1(C)CC(CCNCc2ccc(F)cc2)(c2ccc(C)cc2)CCO1 (configuration not stated) |
| 0.843 | 2.27 | Cc1ccc(Nc2nc(NCCO)c3ccccc3n2)cc1C |
| 0.481 | 8.12 | Cc1ccc(Cl)cc1NC(=O)c1c(-c2c(Cl)cccc2Cl)noc1C |
| 0.256 | 0.191 | CCN(CC)CCNC(=O)c1c(C)oc2c1C(=O)c1ccccc1C2=O |
| 0.207 | 0.151 | Oc1ccccc1/C=N\c1ccc(-c2nc3cc(-c4ccc5[nH]c(-c6ccc(/N=C\c7ccccc7O)cc6)nc5c4)ccc3[nH]2)cc1 |
